According to patent US11427561B2, “IRAK4 inhibiting agents” (BIOGEN MA INC., priority 2016, dated 2022):
Structures can show the parent of a compound that is named as a salt.

How the values were obtained:
[1] = tested on: A549 cells; assay: Cell-based assay: IL-6 ELISA quantification in A549 cells stimulated with human IL-1beta; settings: 2 ng/ml human IL-1beta overnight
Procedure: Cell-based Assay: The cell-based assays is based on IL-6 ELISA quantification. Briefly, A549 cells are cultured in DMEM with 10% FBS medium. When cells reach 80% confluence they are trypsin treated and seeded 180 ul/well in 96-well plate at 2.5×10^4 cells/well. Then, 20 ul of compound serial dilutions (starting at 10 uM, 10 points) are added to the cell plate; incubate for 30 min at 37 C and stimulated with 2 ng/ml human IL-1beta 37 C, 5% CO2 overnight. The next day 100 ul of cell supernatant per well are analyzed on a Human IL-6 Quantikine ELISA kit from R&D Systems.
The compounds described herein were tested for in the above biochemical and cell-based assays.

[2] = target: IRAK4 (Homo sapiens (Human), UniProt Q9NWZ3); assay: IRAK-4 biochemical assay, AlphaScreen format (phosphorylation of a biotin labeled peptide); settings: 1 nM IRAK4, 1.6 μM peptide, 1 mM ATP, 3.5 h at RT
Procedure: Biochemical Assay: The biochemical assay is in a AlphaScreen format. The kinase reaction is based on the IRAK-4 phosphorylation of a biotin labeled peptide. The phosphopeptide is incubated with anti-phosphothreonine antibody as well as streptavidin- and protein A-coated beads. Binding of the protein-A coated beads to the antibody and the streptavidin beads to the peptide, leads to an energy transfer from one bead to the other, ultimately producing a luminescent/fluorescent signal.
Generally, the kinase reaction is carried out at 1 nM IRAK4, 1.6 μM peptide, 1 mM ATP in reaction buffer 50 mM Hepes, 60 mM NaCl, 5 mM MgCl2, 0.25 mM MnCl2, 2 mM DTT, 0.01% BSA, 0.01% Tween-20) for 3.5 h at RT.
The compounds described herein were tested for in the above biochemical assay.

Sequence of IRAK4 (Q9NWZ3 whole entry, species assumed): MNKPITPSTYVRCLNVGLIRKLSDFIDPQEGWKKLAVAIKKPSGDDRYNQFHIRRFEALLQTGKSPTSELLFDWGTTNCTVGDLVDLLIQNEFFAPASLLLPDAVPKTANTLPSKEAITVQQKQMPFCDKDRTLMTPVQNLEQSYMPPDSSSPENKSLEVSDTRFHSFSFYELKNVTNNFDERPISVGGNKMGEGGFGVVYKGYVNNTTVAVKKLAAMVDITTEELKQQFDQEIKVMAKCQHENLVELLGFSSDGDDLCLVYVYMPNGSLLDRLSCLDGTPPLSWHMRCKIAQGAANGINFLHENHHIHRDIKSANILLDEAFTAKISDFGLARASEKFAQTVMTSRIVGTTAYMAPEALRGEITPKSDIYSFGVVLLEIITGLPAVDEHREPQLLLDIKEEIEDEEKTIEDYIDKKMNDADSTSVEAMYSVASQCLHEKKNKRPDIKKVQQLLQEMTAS

SMILES | EC50 ([1]; Homo sapiens, A549, A549 cells) [µM] | IC50 [2] [µM] | EC50 ([1]; A549 cells) [µM]
NC(c1cccc(-c2ccc3cnn(-c4cccc(CO)n4)c3c2)n1)C1CCC(O)C1 (single isomer, unassigned) [Compound 21, 3-(amino(6-(1-(6-(hydroxymethyl)pyridin-2-yl)-1H-indazol-6-yl)pyridin-2-yl)methyl)cyclopentanol-A] | ≤ 1 | ≤ 0.1 | –
NC(c1cccc(-c2ccc3cnn(-c4cccc(CO)n4)c3c2)n1)C1CCC(O)C1 (single isomer, unassigned) [Compound 22, 3-(amino(6-(1-(6-(hydroxymethyl)pyridin-2-yl)-1H-indazol-6-yl)pyridin-2-yl)methyl)cyclopentanol-B] | – | ≤ 0.1 | 1 to 10
NC(c1cccc(-c2ccc3cnn(-c4cccc(CO)n4)c3c2)n1)C1CCC(O)C1 (single isomer, unassigned) [Compound 23, 3-(amino(6-(1-(6-(hydroxymethyl)pyridin-2-yl)-1H-indazol-6-yl)pyridin-2-yl)methyl)cyclopentanol-C] | – | ≤ 0.1 | ≤ 1
N[C@H](c1cccc(-c2ccc3cnn(-c4cccc(CO)n4)c3c2)n1)C1CC(CO)C1 (stereo partly drawn) [Compound 1, (S)-(6-(6-(6-(amino(3-(hydroxymethyl)cyclobutyl)methyl)pyridin-2-yl)-1H-indazol-1-yl)pyridin-2-yl)methanol] | ≤ 1 | ≤ 0.1 | –
N[C@@H](c1cccc(-c2ccc3cnn(-c4cccc(CO)n4)c3c2)n1)C1CC(CO)C1 (stereo partly drawn) [Compound 2, (R)-(6-(6-(6-(amino(3-(hydroxymethyl)cyclobutyl)methyl)pyridin-2-yl)-1H-indazol-1-yl)pyridin-2-yl)methanol] | ≤ 1 | ≤ 0.1 | –
N[C@H](c1cccc(-c2ccc3cnn(-c4cccc(CO)n4)c3c2)n1)C1CC(CO)C1 (stereo partly drawn) [Compound 3, (S)-(6-(6-(6-(amino(3-(hydroxymethyl)cyclobutyl)methyl)pyridin-2-yl)-1H-indazol-1-yl)pyridin-2-yl)methanol] | – | – | ≤ 1
N[C@H](c1cccc(-c2ccc3cnn(-c4cccc(CO)n4)c3c2)n1)[C@H]1C[C@@H](O)C1 [Compound 4, cis-3-((S)-amino(6-(1-(6-(hydroxymethyl)pyridin-2-yl)-1H-indazol-6-yl)pyridin-2-yl)methyl)cyclobutanol] | ≤ 1 | ≤ 0.1 | –
N[C@@H](c1cccc(-c2ccc3cnn(-c4cccc(CO)n4)c3c2)n1)[C@H]1C[C@@H](O)C1 [Compound 5, (cis)-3-((R)-amino(6-(1-(6-(hydroxymethyl)pyridin-2-yl)-1H-indazol-6-yl)pyridin-2-yl)methyl)cyclobutan-1-ol hydrochloride] | ≤ 1 | ≤ 0.1 | –
N[C@H](c1cccc(-c2ccc3cnn(-c4cccc(CO)n4)c3c2)n1)[C@H]1C[C@H](O)C1 [Compound 6, trans-3-((S)-amino(6-(1-(6-(hydroxymethyl)pyridin-2-yl)-1H-indazol-6-yl)pyridin-2-yl)methyl)cyclobutanol] | ≤ 1 | ≤ 0.1 | –
N[C@@H](c1cccc(-c2ccc3cnn(-c4cccc(CO)n4)c3c2)n1)[C@H]1C[C@H](O)C1 [Compound 7, trans-3-((R)-amino(6-(1-(6-(hydroxymethyl)pyridin-2-yl)-1H-indazol-6-yl)pyridin-2-yl)methyl)cyclobutanol] | ≤ 1 | ≤ 0.1 | –
N[C@H](c1cccc(-c2ccc3cnn(-c4nccc(CO)n4)c3c2)n1)[C@H]1C[C@@H](O)C1 [Compound 8, (1R,3S)-3-((S)-amino(6-(1-(4-(hydroxymethyl)pyrimidin-2-yl)-1H-indazol-6-yl)pyridin-2-yl)methyl)cyclobutanol] | ≤ 1 | ≤ 0.1 | –
N[C@H](c1cccc(-c2ccc3cnn(-c4cncc(CO)n4)c3c2)n1)[C@H]1C[C@@H](O)C1 [Compound 9, cis 3-((S)-amino(6-(1-(6-(hydroxymethyl)pyrazin-2-yl)-1H-indazol-6-yl)pyridin-2-yl)methyl)cyclobutanol] | ≤ 1 | ≤ 0.1 | –
N[C@H](c1cccc(-c2ccc3cnn(-c4cccc(C(F)(F)F)n4)c3c2)n1)[C@H]1C[C@@H](O)C1 [Compound 10, (1R,3S)-3-((S)-amino(6-(1-(6-(trifluoromethyl)pyridin-2-yl)-1H-indazol-6-yl)pyridin-2-yl)methyl)cyclobutanol] | ≤ 1 | ≤ 0.1 | –
CCc1ccnc(-n2ncc3ccc(-c4cccc([C@@H](N)[C@H]5C[C@@H](O)C5)n4)cc32)n1 [Compound 11, (1R,3S)-3-((S)-amino(6-(1-(4-ethylpyrimidin-2-yl)-1H-indazol-6-yl)pyridin-2-yl)methyl)cyclobutanol] | ≤ 1 | 0.1 to 1 | –
CCc1cccc(-n2ncc3ccc(-c4cccc([C@@H](N)[C@H]5C[C@@H](O)C5)n4)cc32)n1 [Compound 12, (1R,3s)-3-((S)-amino(6-(1-(6-ethylpyridin-2-yl)-1H-indazol-6-yl)pyridin-2-yl)methyl)cyclobutanol] | 1 to 10 | ≤ 0.1 | –
N[C@H](c1cccc(-c2ccc3cnn(-c4nccc(C(F)(F)F)n4)c3c2)n1)[C@H]1C[C@@H](O)C1 [Compound 13, (1R,3s)-3-((S)-amino(6-(1-(4-(trifluoromethyl)pyrimidin-2-yl)-1H-indazol-6-yl)pyridin-2-yl)methyl)cyclobutanol] | ≤ 1 | ≤ 0.1 | –
N[C@H](c1cccc(-c2ccc3cnn(-c4cccc(C(F)F)n4)c3c2)n1)[C@H]1C[C@@H](O)C1 [Compound 14, cis-3-((S)-amino(6-(1-(6-(difluoromethyl)pyridin-2-yl)-1H-indazol-6-yl)pyridin-2-yl)methyl)cyclobutanol] | ≤ 1 | ≤ 0.1 | –
CCc1cncc(-n2ncc3ccc(-c4cccc([C@@H](N)[C@H]5C[C@@H](O)C5)n4)cc32)n1 [Compound 15, (1R,3s)-3-((S)-amino(6-(1-(6-ethylpyrazin-2-yl)-1H-indazol-6-yl)pyridin-2-yl)methyl)cyclobutanol] | ≤ 1 | ≤ 0.1 | –
N[C@H](c1cncc(-c2ccc3cnn(-c4cccc(CF)n4)c3c2)n1)[C@H]1C[C@@H](O)C1 [Compound 18, cis-3-((S)-amino(6-(1-(6-(fluoromethyl)pyridin-2-yl)-1H-indazol-6-yl)pyrazin-2-yl)methyl)cyclobutanol] | – | 0.1 to 1 | –
N[C@H](c1cncc(-c2ccc3cnn(-c4cccc(C(F)(F)F)n4)c3c2)n1)[C@H]1C[C@@H](O)C1 [Compound 19, cis-3-((S)-amino(6-(1-(6-(trifluoromethyl)pyridin-2-yl)-1H-indazol-6-yl)pyrazin-2-yl)methyl)cyclobutanol] | – | ≤ 0.1 | –
N#CC1(c2cccc(-n3ncc4ccc(-c5cccc([C@@H](N)[C@H]6C[C@@H](O)C6)n5)cc43)n2)CC1 [Compound 20, 1-(6-(6-(6-((S)-amino(cis-3-hydroxycyclobutyl)methyl)pyridin-2-yl)-1H-indazol-1-yl)pyridin-2-yl)cyclopropanecarbonitrile] | – | ≤ 0.1 | –
N[C@@H](c1cccc(-c2ccc3cnn(-c4cccc(CO)n4)c3c2)n1)C1(F)CCC1 [Compound 31, (S)-(6-(6-(6-(amino(1-fluorocyclobutyl)methyl)pyridin-2-yl)-1H-indazol-1-yl)pyridin-2-yl)methanol] | – | ≤ 0.1 | –
N[C@H](c1cccc(-c2ccc3cnn(-c4cccc(CO)n4)c3c2)n1)C1(F)CCC1 [Compound 32, (R)-(6-(6-(6-(amino(1-fluorocyclobutyl)methyl)pyridin-2-yl)-1H-indazol-1-yl)pyridin-2-yl)methanol] | – | ≤ 0.1 | –
N[C@H](c1cccc(-c2ccc3cnn(-c4cccc(CO)n4)c3c2)n1)C1(F)CCC1 [Compound 35c, (R)-(6-(6-(6-(amino(1-fluorocyclobutyl)methyl)pyridin-2-yl)-1H-indazol-1-yl)pyridin-2-yl) methanol] | 1 to 10 | – | –
N[C@@H](c1cccc(-c2ccc3cnn(-c4cccc(CO)n4)c3c2)n1)C1(F)CCC1 [Compound 35d, (S)-(6-(6-(6-(amino(1-fluorocyclobutyl)methyl)pyridin-2-yl)-1H-indazol-1-yl)pyridin-2-yl) methanol] | ≤ 1 | – | –
CO[C@H]1C[C@H]([C@H](N)c2cccc(-c3ccc4cnn(-c5cccc(C(F)F)n5)c4c3)n2)C1 [Compound 35j, (S)-(6-(1-(6-(difluoromethyl)pyridin-2-yl)-1H-indazol-6-yl)pyridin-2-yl)((1R,3S)-3-methoxycyclobutyl)methanamine] | ≤ 1 | – | –
CC1([C@H](N)c2cccc(-c3ccc4cnn(-c5cccc(CF)n5)c4c3)n2)CCC1 [Compound 35k, (S)-(6-(1-(6-(fluoromethyl)pyridin-2-yl)-1H-indazol-6-yl)pyridin-2-yl)(1-methylcyclobutyl)methanamine] | 1 to 10 | – | –
N#CC1CC([C@H](N)c2cccc(-c3ccc4cnn(-c5cccc(CF)n5)c4c3)n2)C1 (stereo partly drawn) [Compound 35l, (S)-3-(amino(6-(1-(6-(fluoromethyl)pyridin-2-yl)-1H-indazol-6-yl)pyridin-2-yl)methyl)cyclo butane-1-carbonitrile] | ≤ 1 | – | –
